Measured values from US20230373989A1, “N-PHENYLAMINOCARBONYL PYRIDINO-, PYRIMIDINO AND BENZO-TROPANES AS MODULATORS OF GPR65” (PATHIOS THERAPEUTICS LIMITED, priority 2020, published 2023).

Biological target: T1, human recombinant GPR65 (Homo sapiens, UniProt Q8IYL9)
T1 construct: host or cells: 1321N1 human astrocytoma cells (1321N1-hrGPR65)
Test: Human GPR65 cAMP HTRF antagonist assay
Type: cell-based
Conditions: not given
Method in brief: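 1321N1 astrocytoma cells stably expressing GPR65 were preincubated with compound for 30 min at room temperature in KRH pH 7.6 with 1 mM IBMX and 200 μM EDTA. They were then stimulated at assay pH 7.2 for 30 min, with controls at pH 7.9. cAMP was read by HTRF (665/620 nm), normalised to controls and fitted by 4-parameter logistic to give IC50.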

T1 sequence (Q8IYL9 whole entry): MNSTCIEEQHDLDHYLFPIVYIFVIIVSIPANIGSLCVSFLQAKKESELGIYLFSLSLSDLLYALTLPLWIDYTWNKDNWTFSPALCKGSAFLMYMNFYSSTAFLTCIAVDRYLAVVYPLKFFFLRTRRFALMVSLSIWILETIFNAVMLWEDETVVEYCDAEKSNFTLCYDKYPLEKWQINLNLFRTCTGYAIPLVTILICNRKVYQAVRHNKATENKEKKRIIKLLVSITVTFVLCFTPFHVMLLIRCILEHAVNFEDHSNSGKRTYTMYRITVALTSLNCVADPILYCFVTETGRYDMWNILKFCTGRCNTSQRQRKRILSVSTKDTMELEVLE

Question: With `O=C(Nc1cc(Cl)c(Cl)cc1F)N1[C@H]2CC[C@@H]1c1c[nH]c(=O)cc1C2` [Compound 94, (6S,9R)-N-(4,5-Dichloro-2-fluorophenyl)-3-oxo-3,5,6,7,8,9-hexahydro-2H-6,9-epiminocyclohepta[c]pyridine-10-carboxamide] as the compound, how does the IC50 read?
Answer: Its IC50 is less than 0.5 µM.

Question: How did the IC50 turn out when `O=C(Nc1ccc(C(F)(F)F)c(Cl)c1)N1C2CCC1c1cnc(=O)[nH]c1C2` (racemic) [Compound 32, (±)-N-(3-Chloro-4-(trifluoromethyl)phenyl)-2-oxo-2,5,6,7,8,9-hexahydro-1H-5,8-epiminocyclohepta[d]pyrimidine-10-carboxamide] was run?
Answer: Its IC50 is less than 0.5 µM.

Question: Which IC50 does the source give for `O=C(Nc1ccc(Cl)c(Cl)c1)N1C2CCC1c1ccnc(Cl)c1C2` (racemic) [Compound 77, (±)-1-Chloro-N-(3,4-dichlorophenyl)-6,7,8,9-tetrahydro-5H-5,8-epiminocyclohepta[c]pyridine-10-carboxamide] here?
Answer: Its IC50 is less than 0.5 µM.

Question: `O=C(Nc1ccc(Cl)c(Cl)c1)N1C2CCC1c1ccc(F)cc1C2` (racemic) [Compound 74, (±)-N-(3,4-Dichlorophenyl)-2-fluoro-6,7,8,9-tetrahydro-5H-5,8-epiminobenzo[7]annulene-10-carboxamide] was tested. Which IC50 did it give?
Answer: Its IC50 is less than 0.5 µM.

Question: Which IC50 does the source give for `O=C(Nc1cc(C(F)(F)F)c(Cl)cc1F)N1[C@H]2CC[C@@H]1c1c[nH]c(=O)cc1C2` [Compound 129, (6S,9R)-N-(4-Chloro-2-fluoro-5-(trifluoromethyl)phenyl)-3-oxo-3,5,6,7,8,9-hexahydro-2H-6,9-epiminocyclohepta[c]pyridine-10-carboxamide] here?
Answer: The IC50 was less than 0.5 µM.

Question: With `O=C(Nc1ccc(C(F)(F)F)c(Cl)c1)N1C2CCC1c1cnc(F)nc1C2` (racemic) [Compound 45, (±)-N-(3-Chloro-4-(trifluoromethyl)phenyl)-2-fluoro-6,7,8,9-tetrahydro-5H-5,8-epiminocyclohepta[d]pyrimidine-10-carboxamide] as the compound, how does the IC50 read?
Answer: The IC50 was less than 0.5 µM.

Question: With `O=C(Nc1ccc(Br)c(Cl)c1)N1[C@H]2CC[C@@H]1c1c[nH]c(=O)cc1C2` [Compound 143, (6S,9R)-N-(4-Bromo-3-chlorophenyl)-3-oxo-3,5,6,7,8,9-hexahydro-2H-6,9-epiminocyclohepta[c]pyridine-10-carboxamide] as the compound, how does the IC50 read?
Answer: The IC50 was less than 0.5 µM.

Question: For `O=C(Nc1cc(Cl)c(C(F)(F)F)cc1F)N1C2CCC1c1ccc(F)nc1C2` (racemic) [Compound 182, (±)-N-(5-Chloro-2-fluoro-4-(trifluoromethyl)phenyl)-2-fluoro-6,7,8,9-tetrahydro-5H-5,8-epiminocyclohepta[b]pyridine-10-carboxamide], which IC50 is on record?
Answer: The IC50 was less than 0.5 µM.

Question: With `O=C(Nc1ccc(Cl)cc1F)N1C2CCC1c1ccnc(F)c1C2` (racemic) [Compound 177, (±)-N-(4-Chloro-2-fluorophenyl)-1-fluoro-6,7,8,9-tetrahydro-5H-5,8-epiminocyclohepta[c]pyridine-10-carboxamide] as the compound, how does the IC50 read?
Answer: Its IC50 is less than 0.5 µM.

Question: `O=C(Nc1ccc(Cl)c(Br)c1)N1[C@H]2CC[C@@H]1c1c[nH]c(=O)cc1C2` [Compound 145, (6S,9R)-N-(3-Bromo-4-chlorophenyl)-3-oxo-3,5,6,7,8,9-hexahydro-2H-6.9-epiminocyclohepta[c]pyridine-10-carboxamide] was tested. Which IC50 did it give?
Answer: Its IC50 is less than 0.5 µM.

Question: `O=C(Nc1ccc(Cl)c(Cl)c1)N1C2CCC1c1ccnc(F)c1C2` (racemic) [Compound 109, (±)-N-(3,4-Dichlorophenyl)-1-fluoro-6,7,8,9-tetrahydro-5H-5,8-epiminocyclohepta[c]pyridine-10-carboxamide] was tested. Which IC50 did it give?
Answer: The IC50 was less than 0.5 µM.

Question: How did the IC50 turn out when `O=C(Nc1cc(Cl)c(C(F)(F)F)cc1F)N1[C@H]2CC[C@@H]1c1c[nH]c(=O)cc1C2` [Compound 93, (6S,9R)-N-(5-Chloro-2-fluoro-4-(trifluoromethyl)phenyl)-3-oxo-3,5,6,7,8,9-hexahydro-2H-6,9-epiminocyclohepta[c]pyridine-10-carboxamide] was run?
Answer: The IC50 was less than 0.5 µM.

Question: Which IC50 does the source give for `N#Cc1cc(Cl)c(Cl)cc1NC(=O)N1[C@H]2CC[C@@H]1c1c[nH]c(=O)cc1C2` [Compound 88, (6S,9R)-N-(4,5-Dichloro-2-cyanophenyl)-3-oxo-3,5,6,7,8,9-hexahydro-2H-6,9-epiminocyclohepta[c]pyridine-10-carboxamide] here?
Answer: Its IC50 is less than 0.5 µM.

Question: `O=C(Nc1cc(Br)c(C(F)(F)F)cc1F)N1[C@H]2CC[C@@H]1c1c[nH]c(=O)cc1C2` [Compound 144, (6S,9R)-N-(5-Bromo-2-fluoro-4-(trifluoromethyl)phenyl)-3-oxo-3,5,6,7,8,9-hexahydro-2H-6,9-epiminocyclohepta[c]pyridine-10-carboxamide] was tested. Which IC50 did it give?
Answer: Its IC50 is less than 0.5 µM.

Same assay, conditions: 1321N1-hrGPR65 cells, assay pH 7.2, cAMP HTRF; read-out: hGPR65 IC50 (activity class)

Question: `O=C(Nc1cc(Cl)c(Cl)cc1F)N1C2CCC1c1cnncc1C2` (racemic) [Compound 193, (±)-N-(4,5-Dichloro-2-fluorophenyl)-6,7,8,9-tetrahydro-5H-5,8-epiminocyclohepta[d]pyridazine-10-carboxamide] was tested. Which IC50 did it give?
Answer: The IC50 was 0.5 to 5 µM.

Question: With `O=C(Nc1ccc(Cl)c(Cl)c1)N1C2CCC1c1ccnc(Br)c1C2` (racemic) [Compound 148, (±)-1-Bromo-N-(3,4-dichlorophenyl)-6,7,8,9-tetrahydro-5H-5,8-epiminocyclohepta[c]pyridine-10-carboxamide] as the compound, how does the IC50 read?
Answer: The IC50 was 0.5 to 5 µM.

Question: Which IC50 does the source give for `O=C(Nc1ccc(C(F)(F)F)c(Cl)c1)N1C2CCC1c1ccc(Cl)cc1C2` (racemic) [Compound 71, (±)-2-Chloro-N-(3-chloro-4-(trifluoromethyl)phenyl)-6,7,8,9-tetrahydro-5H-5,8-epiminobenzo[7]annulene-10-carboxamide] here?
Answer: The IC50 was 0.5 to 5 µM.

Question: How did the IC50 turn out when `CC(C)(C)Nc1cc2c(cn1)CC1CCC2N1C(=O)Nc1ccc(Cl)c(Cl)c1` (racemic) [Compound 66, (±)-3-(tert-Butylamino)-N-(3,4-dichlorophenyl)-6,7,8,9-tetrahydro-5H-5,8-epiminocyclohepta[c]pyridine-10-carboxamide] was run?
Answer: Its IC50 is 0.5 to 5 µM.

Question: How did the IC50 turn out when `Nc1cc2c(cn1)CC1CCC2N1C(=O)Nc1ccc(Cl)c(Cl)c1` (racemic) [Compound 64, (±)-3-Amino-N-(3,4-dichlorophenyl)-6,7,8,9-tetrahydro-5H-5,8-epiminocyclohepta[c]pyridine-10-carboxamide] was run?
Answer: The IC50 was 0.5 to 5 µM.

Question: With `O=C(Nc1ccc(C(F)(F)F)c(Cl)c1)N1C2CCC1c1cnc(C(F)(F)F)nc1C2` (racemic) [Compound 27, (±)-N-(3-Chloro-4-(trifluoromethyl)phenyl)-2-(trifluoromethyl)-6,7,8,9-tetrahydro-5H-5,8-epiminocyclohepta[d]pyrimidine-10-carboxamide] as the compound, how does the IC50 read?
Answer: The IC50 was greater than 5 µM.

Question: `O=C(Nc1ccc(C(F)(F)F)c(Cl)c1)N1C2CCC1c1cnc(-c3ccccc3)nc1C2` (racemic) [Compound 29, (±)-N-(3-Chloro-4-(trifluoromethyl)phenyl)-2-phenyl-6,7,8,9-tetrahydro-5H-5,8-epiminocyclohepta[d]pyrimidine-10-carboxamide] was tested. Which IC50 did it give?
Answer: Its IC50 is 0.5 to 5 µM.

Question: With `O=C(Nc1ccc(Cl)c(Cl)c1)N1[C@@H]2CC[C@H]1c1cncnc1C2` [Compound 53, (5S,8R)-N-(3,4-Dichlorophenyl)-6,7,8,9-tetrahydro-5H-5,8-epiminocyclohepta[d]pyrimidine-10-carboxamide] as the compound, how does the IC50 read?
Answer: Its IC50 is greater than 5 µM.

Question: How did the IC50 turn out when `O=C(Nc1ccc(C(F)(F)F)c(Cl)c1)N1C2CCC1c1cccc(F)c1C2` (racemic) [Compound 84, (±)-N-(3-Chloro-4-(trifluoromethyl)phenyl)-1-fluoro-6,7,8,9-tetrahydro-5H-5,8-epiminobenzo[7]annulene-10-carboxamide] was run?
Answer: Its IC50 is 0.5 to 5 µM.

Question: For `CC(C)(C)Nc1nccc2c1CC1CCC2N1C(=O)Nc1ccc(Cl)c(Cl)c1` (racemic) [Compound 65, (±)-1-(tert-Butylamino)-N-(3,4-dichlorophenyl)-6,7,8,9-tetrahydro-5H-5,8-epiminocyclohepta[c]pyridine-10-carboxamide], which IC50 is on record?
Answer: The IC50 was 0.5 to 5 µM.

Question: With `CC(C)(C)OC(=O)Nc1nccc2c1C1CCC(C2)N1C(=O)Nc1ccc(Cl)c(Cl)c1` (racemic) [Compound 82, tert-butyl ((±)-10-((3,4-dichlorophenyl)carbamoyl)-6,7,8,9-tetrahydro-5H-6,9-epiminocyclohepta[c]pyridin-1-yl)carbamate] as the compound, how does the IC50 read?
Answer: Its IC50 is 0.5 to 5 µM.

Question: `N#Cc1ccc(NC(=O)N2C3CCC2c2ccnc(F)c2C3)cc1` (racemic) [Compound 176, (±)-N-(4-Cyanophenyl)-1-fluoro-6,7,8,9-tetrahydro-5H-5,8-epiminocyclohepta[c]pyridine-10-carboxamide] was tested. Which IC50 did it give?
Answer: Its IC50 is 0.5 to 5 µM.

Question: `COc1cc2c(cn1)[C@H]1CC[C@@H](C2)N1C(=O)Nc1ccc(Cl)c(Cl)c1` [Compound 86, (6S,9R)-N-(3,4-Dichlorophenyl)-3-methoxy-6,7,8,9-tetrahydro-5H-6,9-epiminocyclohepta[c]pyridine-10-carboxamide] was tested. Which IC50 did it give?
Answer: Its IC50 is greater than 5 µM.

Question: Which IC50 does the source give for `O=C(Nc1ccc(Cl)c(Cl)c1)N1C2CCC1C(F)c1ncncc12` (racemic) [Compound 113, Cis-(±)-N-(3,4-Dichlorophenyl)-9-fluoro-6,7,8,9-tetrahydro-5H-5,8-epiminocyclohepta[d]pyrimidine-10-carboxamide] here?
Answer: The IC50 was 0.5 to 5 µM.

Question: `O=C(Nc1ccc(F)cc1F)N1C2CCC1c1ccnc(F)c1C2` (racemic) [Compound 162, (±)-N-(2,4-Difluorophenyl)-1-fluoro-6,7,8,9-tetrahydro-5H-5,8-epiminocyclohepta[c]pyridin-10-carboxamide] was tested. Which IC50 did it give?
Answer: The IC50 was 0.5 to 5 µM.

Question: For `O=C(Nc1ccc(Cl)c(Cl)c1)N1C2CCC1c1cnc(-c3ccccc3)nc1C2` (racemic) [Compound 26, (±)-N-(3,4-Dichlorophenyl)-2-phenyl-6,7,8,9-tetrahydro-5H-5,8-epiminocyclohepta[d]pyrimidine-10-carboxamide], which IC50 is on record?
Answer: Its IC50 is 0.5 to 5 µM.

Question: How did the IC50 turn out when `Nc1nccc2c1CC1CCC2N1C(=O)Nc1ccc(Cl)c(Cl)c1` (racemic) [Compound 63, (±)-1-amino-N-(3,4-dichlorophenyl)-6,7,8,9-tetrahydro-5H-5,8-epiminocyclohepta[c]pyridine-10-carboxamide] was run?
Answer: Its IC50 is greater than 5 µM.

Question: Which IC50 does the source give for `O=C(Nc1ccc(Cl)c(Cl)c1)N1C2CCC1c1cccc(F)c1C2` (racemic) [Compound 83, (±)-N-(3,4-Dichlorophenyl)-1-fluoro-6,7,8,9-tetrahydro-5H-5,8-epiminobenzo[7]annulene-10-carboxamide] here?
Answer: Its IC50 is 0.5 to 5 µM.
